Source: US11407767B2, “Heterocyclyl substituted pyrrolopyridines that are inhibitors of the CDK12 kinase” (The University of Nottingham, priority 2017, dated 2022)

Key:
[1] = system: DM1 fibroblasts; assay: Nuclear foci assay; format: cell-based; settings: Fibroblast; DM1 fibroblasts treated for 24 hours, 11 point dilution 20 μM-19 nM, in situ hybridisation with cy3 labelled CAG10 probe
Protocol: DM1 fibroblasts were treated with compounds in an 11 point dilution series from 20 μM-19 nM for 24 hours. Following treatment, fluorescent in situ hybridisation was performed with a cy3 labelled CAG10 probe, to visualize nuclear foci and cells were analysed on a Molecular Devices plate reader with customised MetaExpress software (Ketley, A. et al. (2014). Hum Mol Genet, 23: 1551-1562). Compounds that reduced nuclear foci in a concentration dependent manner, compared to DMSO treated cells were identified.

[2] = biological target: CDK12/CycK (Homo sapiens, UniProt Q9NYV4); assay: Inhibition of CDK12 (ADP-Glo kinase assay); format: biochemical; settings: 60 nM CDK12/CycK, 30 minutes pre-incubation, 1 μM ATP, 0.5 μM RBER-IRStide substrate, 1 h at 25° C., read-out: CDK12/cyclin K IC50
Method in brief: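 ADP-Glo luminescence read after a 1 h, 25 °C reaction with 1 μM ATP and 0.5 μM RBER-IRStide peptide. Enzyme (60 nM) and compound were first pre-incubated 30 min; buffer 50 mM HEPES pH 7.5, 20 mM MgCl2, 3 mM MnCl2, 1% DMSO. IC50 fitted after blank subtraction.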

Chain of CDK12/CycK (Q9NYV4 whole entry): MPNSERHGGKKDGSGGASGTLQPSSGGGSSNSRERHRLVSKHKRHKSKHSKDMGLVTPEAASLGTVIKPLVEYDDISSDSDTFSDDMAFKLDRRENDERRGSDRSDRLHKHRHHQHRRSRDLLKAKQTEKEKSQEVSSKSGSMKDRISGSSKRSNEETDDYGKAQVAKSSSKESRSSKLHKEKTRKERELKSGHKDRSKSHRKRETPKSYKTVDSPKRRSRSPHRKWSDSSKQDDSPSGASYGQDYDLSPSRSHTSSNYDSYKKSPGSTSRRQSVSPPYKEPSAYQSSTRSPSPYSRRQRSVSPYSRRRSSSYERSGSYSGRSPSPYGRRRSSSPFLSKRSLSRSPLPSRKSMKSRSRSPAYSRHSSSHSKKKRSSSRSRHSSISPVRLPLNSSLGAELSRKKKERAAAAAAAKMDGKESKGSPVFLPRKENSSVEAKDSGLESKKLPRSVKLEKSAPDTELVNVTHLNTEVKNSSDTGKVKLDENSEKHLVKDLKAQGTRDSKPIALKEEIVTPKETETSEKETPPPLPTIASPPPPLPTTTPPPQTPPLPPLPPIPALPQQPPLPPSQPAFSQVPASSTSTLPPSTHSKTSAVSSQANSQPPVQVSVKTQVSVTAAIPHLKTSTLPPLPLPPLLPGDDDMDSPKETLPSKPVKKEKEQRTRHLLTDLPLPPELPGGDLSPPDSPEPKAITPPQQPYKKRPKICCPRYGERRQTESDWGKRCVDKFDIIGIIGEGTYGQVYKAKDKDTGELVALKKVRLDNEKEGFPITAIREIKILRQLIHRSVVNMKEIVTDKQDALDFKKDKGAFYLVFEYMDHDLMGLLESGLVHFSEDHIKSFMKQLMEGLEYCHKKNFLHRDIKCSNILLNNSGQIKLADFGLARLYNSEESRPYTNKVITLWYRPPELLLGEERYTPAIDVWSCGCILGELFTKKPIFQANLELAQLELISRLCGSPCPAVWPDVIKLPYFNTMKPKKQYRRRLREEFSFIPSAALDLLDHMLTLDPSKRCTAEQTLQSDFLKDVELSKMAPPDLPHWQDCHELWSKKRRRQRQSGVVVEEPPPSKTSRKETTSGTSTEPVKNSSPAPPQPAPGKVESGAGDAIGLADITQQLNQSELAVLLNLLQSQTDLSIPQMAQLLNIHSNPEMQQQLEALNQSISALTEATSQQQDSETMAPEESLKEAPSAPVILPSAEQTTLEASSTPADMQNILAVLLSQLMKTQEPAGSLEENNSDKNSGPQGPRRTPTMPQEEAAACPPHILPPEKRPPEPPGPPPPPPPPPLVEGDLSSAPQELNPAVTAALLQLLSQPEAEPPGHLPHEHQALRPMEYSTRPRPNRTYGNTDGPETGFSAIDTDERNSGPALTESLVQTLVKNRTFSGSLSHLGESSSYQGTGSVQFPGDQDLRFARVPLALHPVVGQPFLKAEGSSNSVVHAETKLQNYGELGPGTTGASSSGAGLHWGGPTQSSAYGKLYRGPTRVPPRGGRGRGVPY
Chain of CDK12/CycK (O75909 whole entry partner): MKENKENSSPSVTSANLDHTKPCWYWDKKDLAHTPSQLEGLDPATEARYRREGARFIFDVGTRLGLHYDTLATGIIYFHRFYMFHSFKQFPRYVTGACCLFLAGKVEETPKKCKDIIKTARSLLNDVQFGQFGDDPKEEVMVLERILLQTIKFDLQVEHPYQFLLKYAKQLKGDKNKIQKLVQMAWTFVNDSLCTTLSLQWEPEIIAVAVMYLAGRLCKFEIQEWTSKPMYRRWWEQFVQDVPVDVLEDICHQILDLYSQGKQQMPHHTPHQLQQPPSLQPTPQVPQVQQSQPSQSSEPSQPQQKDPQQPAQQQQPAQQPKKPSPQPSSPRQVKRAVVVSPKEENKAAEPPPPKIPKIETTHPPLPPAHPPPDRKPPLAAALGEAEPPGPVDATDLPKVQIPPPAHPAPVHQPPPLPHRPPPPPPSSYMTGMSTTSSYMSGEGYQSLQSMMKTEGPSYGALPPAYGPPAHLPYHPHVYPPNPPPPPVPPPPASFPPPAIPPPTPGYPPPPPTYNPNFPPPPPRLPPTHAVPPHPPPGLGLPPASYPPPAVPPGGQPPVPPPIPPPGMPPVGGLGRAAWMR

With C=CC(=O)Nc1cccc(C(=O)NCCc2cc3c(-c4cnn5ncccc45)ccnc3[nH]2)c1 [Example 36, 3-Acrylamido-N-(2-(4-(pyrazolo[1,5-b]pyridazin-3-yl)-1H-pyrrolo[2,3-b]pyridin-2-yl)ethyl)benzamide] the IC50 [1] was < 1 µM and the IC50 [2] was < 0.1 µM.

For C=CC(=O)Nc1cccc(C(=O)N2CCN(Cc3cc4c(-c5cnn6ncccc56)ccnc4[nH]3)CC2)c1 [Example 111, N-(3-(4-((4-(Pyrazolo[1,5-b]pyridazin-3-yl)-1H-pyrrolo[2,3-b]pyridin-2-yl)methyl)piperazine-1-carbonyl)phenyl)acrylamide], the IC50 [1] was 1 to 10 µM and the IC50 [2] was 0.1 to 1 µM.

CC(C)(CCl)C(=O)N1CCC[C@H]1C(=O)NCCc1cc2c(-c3cnn4ncccc34)ccnc2[nH]1 [Example 45, (S)-1-(3-Chloro-2,2-dimethylpropanoyl)-N-(2-(4-(pyrazolo[1,5-b]pyridazin-3-yl)-1H-pyrrolo[2,3-b]pyridin-2-yl)ethyl)pyrrolidine-2-carboxamide] was tested, and the IC50 [1] was 10 to 100 µM and the IC50 [2] was 0.1 to 1 µM.

C=CC(=O)N1CCC[C@@H]1C(=O)NCCc1cc2c(-c3cnn4ncccc34)ccnc2[nH]1 [Example 33, (R)-1-Acryloyl-N-(2-(4-(pyrazolo[1,5-b]pyridazin-3-yl)-1H-pyrrolo[2,3-b]pyridin-2-yl)ethyl)pyrrolidine-2-carboxamide] was tested, and the IC50 [1] was < 1 µM and the IC50 [2] was < 0.1 µM.

CNC(=O)c1cc2c(-c3cnn4ncccc34)ccnc2[nH]1 [Example 7, N-Methyl-4-(pyrazolo[1,5-b]pyridazin-3-yl)-1H-pyrrolo[2,3-b]pyridine-2-carboxamide] was tested, and the IC50 [1] was 1 to 10 µM and the IC50 [2] was 0.1 to 1 µM.

Cc1cc2c(-c3cnn4ncccc34)ccnc2[nH]1 [Example 27, 3-(2-Methyl-1H-pyrrolo[2,3-b]pyridin-4-yl)pyrazolo[1,5-b]pyridazine] was tested, and the IC50 [1] was < 1 µM and the IC50 [2] was 0.1 to 1 µM.

With C=CC(=O)N1C[C@H](F)C[C@H]1C(=O)NCCc1cc2c(-c3cnn4ncccc34)ccnc2[nH]1 [Example 207, (2S,4R)-1-Acryloyl-4-fluoro-N-(2-(4-(pyrazolo[1,5-b]pyridazin-3-yl)-1H-pyrrolo[2,3-b]pyridin-2-yl)ethyl)pyrrolidine-2-carboxamide] the IC50 [1] was < 1 µM and the IC50 [2] was < 0.1 µM.

For OCc1cc2c(-c3cnn4ncccc34)ccnc2[nH]1 [Example 11, (4-(Pyrazolo[1,5-b]pyridazin-3-yl)-1H-pyrrolo[2,3-b]pyridin-2-yl)methanol], the IC50 [1] was 1 to 10 µM and the IC50 [2] was 0.1 to 1 µM.

For C=CC(=O)N1CCC[C@@H]1C(=O)NCCc1cc2c(-c3cnn4ncccc34)c(Cl)cnc2[nH]1 [Example 54, (R)-1-Acryloyl-N-(2-(5-chloro-4-(pyrazolo[1,5-b]pyridazin-3-yl)-1H-pyrrolo[2,3-b]pyridin-2-yl)ethyl)pyrrolidine-2-carboxamide], the IC50 [1] was < 1 µM and the IC50 [2] was < 0.1 µM.

With COc1ccc2c(-c3ccnc4[nH]ccc34)cnn2n1 [Example 22, 6-Methoxy-3-(1H-pyrrolo[2,3-b]pyridin-4-yl)pyrazolo[1,5-b]pyridazine] the IC50 [1] was 10 to 100 µM and the IC50 [2] was 1 to 30 µM.

Compound C=CC(=O)Nc1ccc(C(=O)N2CCN(Cc3cc4c(-c5cnn6ncccc56)ccnc4[nH]3)CC2)cc1 [Example 112, N-(4-(4-((4-(Pyrazolo[1,5-b]pyridazin-3-yl)-1H-pyrrolo[2,3-b]pyridin-2-yl)methyl)piperazine-1-carbonyl)phenyl)acrylamide] has an IC50 [1] of 1 to 10 µM and an IC50 [2] of 0.1 to 1 µM.

c1ccc(Cc2cc3c(-c4cnn5ncccc45)ccnc3[nH]2)cc1 [Example 10, 3-(2-Benzyl-1H-pyrrolo[2,3-b]pyridin-4-yl)pyrazolo[1,5-b]pyridazine] was tested, and the IC50 [1] was 10 to 100 µM and the IC50 [2] was 1 to 30 µM.

O=C(CCl)Nc1ccc(C(=O)N2CCC(c3cc4c(-c5cnn6ncccc56)ccnc4[nH]3)C2)cc1 (centres unmarked) [Example 144, 2-Chloro-N-(4-(3-(4-(pyrazolo[1,5-b]pyridazin-3-yl)-1H-pyrrolo[2,3-b]pyridin-2-yl)pyrrolidine-1-carbonyl)phenyl)acetamide] was tested, and the IC50 [1] was < 1 µM and the IC50 [2] was < 0.1 µM.

With CCC(=O)N1CCC[C@H]1C(=O)NCCc1cc2c(-c3cnn4ncccc34)ccnc2[nH]1 [Example 73, (S)-1-Propionyl-N-(2-(4-(pyrazolo[1,5-b]pyridazin-3-yl)-1H-pyrrolo[2,3-b]pyridin-2-yl)ethyl)pyrrolidine-2-carboxamide] the IC50 [1] was 10 to 100 µM and the IC50 [2] was 1 to 30 µM.

O=C(CCl)Nc1cccc(C(=O)N2CC[C@H](c3cc4c(-c5cnn6ncccc56)ccnc4[nH]3)C2)c1 [Example 160, (S)-2-Chloro-N-(3-(3-(4-(pyrazolo[1,5-b]pyridazin-3-yl)-1H-pyrrolo[2,3-b]pyridin-2-yl)pyrrolidine-1-carbonyl)phenyl)acetamide] was tested, and the IC50 [1] was < 1 µM and the IC50 [2] was < 0.1 µM.

With O=C(CCl)Nc1cccc(C(=O)N2CC[C@@H](c3cc4c(-c5cnn6ncccc56)ccnc4[nH]3)C2)c1 [Example 159, (R)-2-Chloro-N-(3-(3-(4-(pyrazolo[1,5-b]pyridazin-3-yl)-1H-pyrrolo[2,3-b]pyridin-2-yl)pyrrolidine-1-carbonyl)phenyl)acetamide] the IC50 [1] was < 1 µM and the IC50 [2] was < 0.1 µM.

Work on NC(=O)c1cc2c(-c3cnn4ncccc34)ccnc2[nH]1 [Example 6, 4-(Pyrazolo[1,5-b]pyridazin-3-yl)-1H-pyrrolo[2,3-b]pyridine-2-carboxamide] yielded an IC50 [1] of 1 to 10 µM and an IC50 [2] of 0.1 to 1 µM.

In the case of C=CC(=O)N1CCC[C@@H](C(=O)NCCc2cc3c(-c4cnn5ncccc45)ccnc3[nH]2)C1 [Example 34, (R)-1-Acryloyl-N-(2-(4-(pyrazolo[1,5-b]pyridazin-3-yl)-1H-pyrrolo[2,3-b]pyridin-2-yl)ethyl)piperidine-3-carboxamide], the IC50 [1] is reported as 1 to 10 µM and the IC50 [2] is reported as < 0.1 µM.

C=CC(=O)NC(Cc1ccccc1)C(=O)NCCc1cc2c(-c3cnn4ncccc34)ccnc2[nH]1 (centres unmarked) [Example 211, N-(1-Oxo-3-phenyl-1-((2-(4-(pyrazolo[1,5-b]pyridazin-3-yl)-1H-pyrrolo[2,3-b]pyridin-2-yl)ethyl)amino)propan-2-yl)acrylamide] gave an IC50 [1] of 1 to 10 µM and an IC50 [2] of 0.1 to 1 µM.

In the case of C=CC(=O)N1CCCC[C@H]1C(=O)NCCc1cc2c(-c3cnn4ncccc34)ccnc2[nH]1 [Example 92, (S)-1-Acryloyl-N-(2-(4-(pyrazolo[1,5-b]pyridazin-3-yl)-1H-pyrrolo[2,3-b]pyridin-2-yl)ethyl)piperidine-2-carboxamide], the IC50 [1] is reported as 1 to 10 µM and the IC50 [2] is reported as < 0.1 µM.

With CN(C)C/C=C/C(=O)N1CCC[C@H]1C(=O)NCCc1cc2c(-c3cnn4ncccc34)ccnc2[nH]1 [Example 84, (S,E)-1-(4-(Dimethylamino)but-2-enoyl)-N-(2-(4-(pyrazolo[1,5-b]pyridazin-3-yl)-1H-pyrrolo[2,3-b]pyridin-2-yl)ethyl)pyrrolidine-2-carboxamide] the IC50 [1] was 10 to 100 µM and the IC50 [2] was 1 to 30 µM.

C[C@@H](Cl)C(=O)N1CCC[C@@H]1C(=O)N1CCC(c2cc3c(-c4cnn5ncccc45)ccnc3[nH]2)C1 (stereo partly drawn) [Example 70, (2R)-2-Chloro-1-((2R)-2-(3-(4-(pyrazolo[1,5-b]pyridazin-3-yl)-1H-pyrrolo[2,3-b]pyridin-2-yl)pyrrolidine-1-carbonyl)pyrrolidin-1-yl)propan-1-one] gave an IC50 [1] of 1 to 10 µM and an IC50 [2] of 0.1 to 1 µM.

With O=C([C@H]1CCCN1C(=O)CCl)N1CCC(c2cc3c(-c4cnn5ncccc45)ccnc3[nH]2)C1 (stereo partly drawn) [Example 156, 2-Chloro-1-((2R)-2-(3-(4-(pyrazolo[1,5-b]pyridazin-3-yl)-1H-pyrrolo[2,3-b]pyridin-2-yl)pyrrolidine-1-carbonyl)pyrrolidin-1-yl)ethan-1-one] the IC50 [1] was < 1 µM and the IC50 [2] was < 0.1 µM.

With C=CC(=O)NC(C)C(=O)NCCc1cc2c(-c3cnn4ncccc34)ccnc2[nH]1 (centres unmarked) [Example 212, N-(1-oxo-1-((2-(4-(pyrazolo[1,5-b]pyridazin-3-yl)-1H-pyrrolo[2,3-b]pyridin-2-yl)ethyl)amino)propan-2-yl)acrylamide] the IC50 [1] was 1 to 10 µM and the IC50 [2] was 0.1 to 1 µM.

For C/C=C/C(=O)N1CCC[C@H]1C(=O)NCCc1cc2c(-c3cnn4ncccc34)ccnc2[nH]1 [Example 44, (S,E)-1-(But-2-enoyl)-N-(2-(4-(pyrazolo[1,5-b]pyridazin-3-yl)-1H-pyrrolo[2,3-b]pyridin-2-yl)ethyl)pyrrolidine-2-carboxamide], the IC50 [1] was 1 to 10 µM and the IC50 [2] was 1 to 30 µM.

For O=C(CCl)Nc1cccc(C(=O)N2CCC(c3cc4c(-c5cnn6ncccc56)ccnc4[nH]3)C2)c1 (centres unmarked) [Example 145, 2-Chloro-N-(3-(3-(4-(pyrazolo[1,5-b]pyridazin-3-yl)-1H-pyrrolo[2,3-b]pyridin-2-yl)pyrrolidine-1-carbonyl)phenyl)acetamide], the IC50 [1] was < 1 µM and the IC50 [2] was < 0.1 µM.

C=CC(=O)N1CC2(CC2)C[C@H]1C(=O)NCCc1cc2c(-c3cnn4ncccc34)ccnc2[nH]1 [Example 208, (S)-5-Acryloyl-N-(2-(4-(pyrazolo[1,5-b]pyridazin-3-yl)-1H-pyrrolo[2,3-b]pyridin-2-yl)ethyl)-5-azaspiro[2.4]heptane-6-carboxamide] was tested, and the IC50 [1] was 1 to 10 µM and the IC50 [2] was < 0.1 µM.

Compound CN(C)C/C=C/C(=O)Nc1cccc(C(=O)NCCc2cc3c(-c4cnn5ncccc45)ccnc3[nH]2)c1 [Example 200, (E)-3-(4-(Dimethylamino)but-2-enamido)-N-(2-(4-(pyrazolo[1,5-b]pyridazin-3-yl)-1H-pyrrolo[2,3-b]pyridin-2-yl)ethyl)benzamide] has an IC50 [1] of 10 to 100 µM and an IC50 [2] of 0.1 to 1 µM.
